These molecules were tested against recombinant human BACE-1 protein (Homo sapiens (Human), UniProt P56817) (assay: Measurement of Inhibition of β-Secretase Activity). Details: fluorescence-quenched peptide substrate 18 nM, BACE-1 7.4 nM, 3 h at 30° C., pH5.0; read-out: IC50 value.
Type: biochemical
Procedure: Zero point five μL of the test compounds (dissolved in N,N′-dimethylsulfoxide) were incubated with 48.5 μL of the fluorescence-quenched peptide substrate solution (Biotin-XSEVNLDAEFRHDSGC-Eu:X=ε-amino-n-capronic acid, Eu=Europium cryptate) and 1 μL of recombinant human BACE-1 protein (R&D systems) for 3 h at 30° C. in the 96 well half-area plate (black color plate, Costar). The substrate peptide was synthesized by reacting with Biotin-XSEVNLDAEFRHDSGC (Peptide Institute) and Cryptate TBPCOOH mono SMP (CIS bio international). […] The enzymatic reaction was performed in sodium acetate buffer (50 mM sodium acetate (pH5.0), 0.008% Triton X-100). After the reaction, a 50 μL of 8.0 μg/mL Streptavidin-XL665 (CIS bio international) dissolved in phosphate buffer (150 mM K2HPO4—KH2PO4 (pH 7.0), 0.008% Triton X-100, 0.8 M KF) was add to each well and incubated for 1 h at 30° C.

Sequence of recombinant human BACE-1 protein (P56817 46-501): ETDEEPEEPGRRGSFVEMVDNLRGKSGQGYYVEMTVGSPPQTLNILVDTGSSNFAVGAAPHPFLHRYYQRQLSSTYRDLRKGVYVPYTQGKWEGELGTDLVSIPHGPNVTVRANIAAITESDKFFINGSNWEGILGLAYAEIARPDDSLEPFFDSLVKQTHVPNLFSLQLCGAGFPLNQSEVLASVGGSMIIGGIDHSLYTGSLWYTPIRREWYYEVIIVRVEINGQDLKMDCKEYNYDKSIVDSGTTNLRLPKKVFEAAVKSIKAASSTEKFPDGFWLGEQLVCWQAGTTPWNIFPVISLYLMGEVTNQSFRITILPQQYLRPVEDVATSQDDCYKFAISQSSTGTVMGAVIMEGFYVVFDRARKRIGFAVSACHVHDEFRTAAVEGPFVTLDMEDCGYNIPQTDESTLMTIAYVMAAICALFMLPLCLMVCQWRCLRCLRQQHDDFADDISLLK

Row | Structure (SMILES) | IC50 [µM]
1 | CC1(c2cc(Br)cc(NC(=O)c3ccco3)c2)CCSC(N)=N1 (stereo not shown) [Compound 370] | < 100
2 | Cc1ccc(F)c(C(=O)Nc2cccc(C3(C)CCSC(N)=N3)c2)c1 (stereo not shown) [Compound 373] | < 100
3 | CC1(c2cccc(NC(=O)c3ccc(Cl)cc3F)c2)CCSC(N)=N1 (stereo not shown) [Compound 378] | < 100
4 | CC1(c2cccc(/C=N/Oc3ccccc3)c2)CCSC(N)=N1 (stereo not shown) [Compound 383] | < 100
5 | CC1(c2cccc(NCc3cccnc3)c2)CCSC(N)=N1 (stereo not shown) [Compound 389] | < 100
6 | CC1(c2cccc(OCC(=O)Nc3ccc4ccccc4n3)c2)CCSC(N)=N1 (stereo not shown) [Compound 390] | < 100
7 | CC1(c2cccc(NC(=O)c3ccc(NCc4ccncc4)cn3)c2)CCSC(N)=N1 (stereo not shown) [Compound 393] | < 100
8 | Cc1oc(-c2ccc(Cl)cc2)cc1C(=O)Nc1cc(C2(C)CCSC(N)=N2)ccc1F (stereo not shown) [Compound 397] | < 100
9 | CC1(c2cccc(OCC(=O)Nc3ccc(O)cc3)c2)CCSC(N)=N1 (stereo not shown) [Compound 402] | < 100
10 | CC1(c2cccc(NC(=S)Nc3ccc(Cl)cc3)c2)CCSC(N)=N1 (stereo not shown) [Compound 406] | < 100
11 | CC1(c2cccc(NCCc3ccccc3)c2)CCSC(N)=N1 (stereo not shown) [Compound 409] | < 100
12 | CC1(c2cccc(/C=C/C(=O)Nc3ccc(F)cc3)c2)CCSC(N)=N1 (stereo not shown) [Compound 415] | < 100
13 | CC1(c2cccc(NC(=O)c3ccc(NCc4cccnc4)cn3)c2)CCSC(N)=N1 (stereo not shown) [Compound 426] | < 100
14 | CC1(c2ccc(C(=O)NCCc3ccc(Cl)cc3)s2)CCSC(N)=N1 (stereo not shown) [Compound 442] | < 100
15 | CC1(c2cccc(NCc3ccc4ccccc4c3)c2)CCSC(N)=N1 (stereo not shown) [Compound 443] | < 100
16 | CC1(c2cccc(C(=O)NCCc3ccc(Cl)cc3)c2)CCSC(N)=N1 (stereo not shown) [Compound 451] | < 100
17 | CC1(c2cccc(OCC(=O)Nc3ccc4cnccc4c3)c2)CCSC(N)=N1 (stereo not shown) [Compound 454] | < 100
18 | CC1(c2cc(Br)cc(NC(=O)c3ccc(Cl)cc3)c2)CCSC(N)=N1 (stereo not shown) [Compound 463] | < 100
19 | COc1ccc(C(=O)Nc2cccc(C3(C)CCSC(N)=N3)c2)c(OC)n1 (stereo not shown) [Compound 467] | < 100

Row | Structure (SMILES) | IC50 [µM]
20 | CC1(c2cccc(NC(=O)c3ccc(F)c(O)c3)c2)CCSC(N)=N1 (stereo not shown) [Compound 469] | < 100
21 | CC1(c2cccc(NC(=O)c3ncc(Cl)cc3N)c2)CCSC(N)=N1 (stereo not shown) [Compound 472] | < 100
22 | CC1(c2cccc(NC(=O)c3ccc(C(F)(F)F)cc3)c2)CCSC(N)=N1 (stereo not shown) [Compound 479] | < 100
23 | CCOc1ccc(C(=O)Nc2cccc(C3(C)CCSC(N)=N3)c2)cc1 (stereo not shown) [Compound 480] | < 100
24 | CC1(c2cccc(NC(=O)c3ncc(C(F)(F)F)cc3Cl)c2)CCSC(N)=N1 (stereo not shown) [Compound 482] | < 100
25 | Cc1noc(C)c1C(=O)Nc1cccc(C2(C)CCSC(N)=N2)c1 (stereo not shown) [Compound 491] | < 100
26 | CC1(c2ccc(F)c(NS(=O)(=O)c3ccc(Cl)cc3)c2)CCSC(N)=N1 (stereo not shown) [Compound 493] | < 100
27 | Cn1cccc1C(=O)Nc1ccc(F)c(C2(C)CCSC(N)=N2)c1 (stereo not shown) [Compound 497] | < 100
28 | CC1(c2cccc(OCC(=O)Nc3ccc4c(c3)OCCO4)c2)CCSC(N)=N1 (stereo not shown) [Compound 509] | < 100
29 | CCOc1ccc(C(=O)Nc2cccc(C3(C)CCSC(N)=N3)c2)nc1 (stereo not shown) [Compound 516] | < 100
30 | CC1(c2cccc(NC(=O)c3ccc(C#N)cc3F)c2)CCSC(N)=N1 (stereo not shown) [Compound 517] | < 100
31 | CC1(c2ccc(F)c(NC(=O)c3ccc(Cl)nc3)c2)CCSC(N)=N1 (stereo not shown) [Compound 527] | < 100
32 | CCOc1cc(Cl)cnc1C(=O)Nc1cccc(C2(C)CCSC(N)=N2)c1 (stereo not shown) [Compound 532] | < 100
33 | CC1(c2cccc(C(=O)Nc3ccc(Cl)cn3)c2)CCSC(N)=N1 (stereo not shown) [Compound 542] | < 100
34 | CC1(c2cc(NC(=O)c3ccc(Cl)cc3Cl)ccc2F)CCSC(N)=N1 (stereo not shown) [Compound 544] | < 100
35 | Cc1ccc(C(=O)Nc2cccc(C3(C)CCSC(N)=N3)c2)cc1 (stereo not shown) [Compound 550] | < 100
36 | CC1(c2ccc(F)c(C(=O)NCc3ccccc3)c2)CCSC(N)=N1 (stereo not shown) [Compound 558] | < 100
37 | CC1(c2cc(NC(=O)c3ccc4cc[nH]c4c3)ccc2F)CCSC(N)=N1 (stereo not shown) [Compound 560] | < 100
38 | CC1(c2cccc(NC(=O)c3cccc(Cl)c3)c2)CCSC(N)=N1 (stereo not shown) [Compound 568] | < 100

Row | Structure (SMILES) | IC50 [µM]
39 | Cc1ccc(C(=O)Nc2cccc(C3(C)CCSC(N)=N3)c2)c(O)c1 (stereo not shown) [Compound 569] | < 100
40 | CC1(c2cccc(NC(=O)c3c(O)cccc3F)c2)CCSC(N)=N1 (stereo not shown) [Compound 575] | < 100
41 | Cc1cc(C(=O)Nc2cccc(C3(C)CCSC(N)=N3)c2)c(C)o1 (stereo not shown) [Compound 578] | < 100
42 | Cn1c(C(=O)Nc2ccc(F)c(C3(C)CCSC(N)=N3)c2)cc2ccccc21 (stereo not shown) [Compound 586] | < 100
43 | CC1(c2cccc(OCC(=O)Nc3ccc(C(=O)c4ccccc4)cc3)c2)CCSC(N)=N1 (stereo not shown) [Compound 591] | < 100
44 | Cc1cc(C(=O)Nc2cc(C3(C)CCSC(N)=N3)ccc2F)c(C)o1 (stereo not shown) [Compound 607] | < 100
45 | CC1(c2cccc(NC(=O)c3ccc(NCc4ccccc4)cn3)c2)CCSC(N)=N1 (stereo not shown) [Compound 608] | < 100
46 | CC1(c2cccc(NC(=O)CCNC(=O)c3ccc(Cl)cc3)c2)CCSC(N)=N1 (stereo not shown) [Compound 613] | < 100
47 | Cc1ccc(C(=O)Nc2cccc(C3(C)CCSC(N)=N3)c2)nn1 (stereo not shown) [Compound 618] | < 100
48 | C/C(=N\OCc1ccccc1)c1cccc(C2(C)CCSC(N)=N2)c1 (stereo not shown) [Compound 620] | < 100
49 | Cc1ccc2[nH]c(C(=O)Nc3cccc(C4(C)CCSC(N)=N4)c3)cc2c1 (stereo not shown) [Compound 629] | < 100
50 | CC1(c2ccc(F)c(NC(=O)c3ccccn3)c2)CCSC(N)=N1 (stereo not shown) [Compound 637] | < 100
51 | CC1(c2cccc(NC(=O)c3ncc(Cl)cc3Cl)c2)CCSC(N)=N1 (stereo not shown) [Compound 646] | < 100
52 | CC1(c2cccc(NC(=O)c3ccc4nonc4c3)c2)CCSC(N)=N1 (stereo not shown) [Compound 652] | < 100
53 | CCn1nc(C)cc1C(=O)Nc1ccc(F)c(C2(C)CCSC(N)=N2)c1 (stereo not shown) [Compound 661] | < 100
54 | CC1(c2cccc(C(=O)Nc3nncs3)c2)CCSC(N)=N1 (stereo not shown) [Compound 671] | < 100
55 | CC1(c2cccc(CCC(=O)Nc3ccc(F)cc3)c2)CCSC(N)=N1 (stereo not shown) [Compound 677] | < 100
56 | CC1(c2cccc(Nc3nc4ccccc4[nH]3)c2)CCSC(N)=N1 (stereo not shown) [Compound 681] | < 100
57 | CC1(c2cccc(NC(=O)c3cccc(I)c3)c2)CCSC(N)=N1 (stereo not shown) [Compound 691] | < 100

Same assay, conditions: recombinant human BACE-1 protein, 3 h at 30° C., pH5.0; read-out: IC50 value

Row | Structure (SMILES) | IC50 [µM]
58 | COCc1cc(NC(=O)c2ccc(Cl)cc2)cc(C2(C)CCSC(N)=N2)c1 (stereo not shown) [Compound 395] | 1.5
59 | CC1(c2cc(Br)cc(NC(=O)c3cccs3)c2)CCSC(N)=N1 (stereo not shown) [Compound 490] | 5.1
60 | CC1(c2cccc(C=Cc3ccc(Cl)cn3)c2)CCSC(N)=N1 (stereo not shown) [Compound 616] | 5.9
61 | Cc1ccc(NC(=O)COc2cccc(C3(C)CCSC(N)=N3)c2)cc1O (stereo not shown) [Compound 639] | 7.9
62 | COCc1cc(NC(=O)c2ccc(C(F)(F)F)cc2)cc(C2(C)CCSC(N)=N2)c1 (stereo not shown) [Compound 660] | 4.59
63 | COCc1cc(NC(=O)c2ccc(OC(F)(F)F)cc2)cc(C2(C)CCSC(N)=N2)c1 (stereo not shown) [Compound 664] | 3.64
64 | CC1(c2cc(Cl)cc(NC(=O)c3ccc(Br)cc3)c2)CCSC(N)=N1 (stereo not shown) [Compound 698] | 0.165
